The values that follow are results of earlier work, collected in patent US20190224118A1, “ORAL GASTRORETENTIVE FORMULATIONS AND USES THEREOF” (INTEC PHARMA LTD., priority 2016, published 2019).

Each structure is given as a SMILES string.

Take `C=C(C)[C@@H]1CCC(C)=C[C@H]1c1c(O)cc(CCCCC)cc1O` [CBD, cannabidiol]: under “urine”, the “number of metabolites identified in urine” value is “more than 33”.
Consider `CCCCCc1cc(O)c2c(c1)OC(C)(C)[C@@H]1CCC(C)=C[C@@H]21` [Δ9-THC, Δ-9-tetrahydrocannabinol], for which, for the setting “oral versus smoking”, the “plasma levels of active 11-hydroxy metabolite, oral administration versus smoking” value is “about three”.
